# From paper PMC9505425, “Targeting of the Mitochondrial TET1 Protein by Pyrrolo[3,2-b]pyrrole Chelators” (International Journal of Molecular Sciences, 2022)
# “Also recorded” adds a separate entry of the source.
# Tests used:
# [1] = molecular target: T1, TET1 protein (Homo sapiens, UniProt Q8NFU7); test: Fluorometric TET hydroxylase activity assay with purified TET1 enzyme; format: biochemical; settings: for inhibitory activity towards TET1: screened at 10^−7 to 10^−4 M
# T1 construct: purchased Active Motif, Carlsbad, CA, USA
# Method: Figure 4 and Table S1 show the dependence of TET1 activity on the concentration of compound 1.
# Compounds 1–6 were tested for the inhibition of the total 5mC hydroxylase TET enzyme using a purified TET1 enzyme (Active Motif, Carlsbad, CA, USA) by a fluorometric TET hydroxylase activity quantification kit (Abcam, Cambridge, UK). A total of 25 µg of purified TET1 protein was diluted in a TET assay buffer in a 5 mL volumetric flask, containing α-ketoglutarate and ferric sulfate. The concentrations of ascorbic acid, α-ketoglutarate, and ferric sulfate in the diluted TET assay buffer were 2, 1, and 0.1 mM, respectively. Tested compounds were dissolved in DMSO to obtain a concentration of 0.01 M. DMSO solutions of compounds 1–6 were then diluted with a TET assay buffer to concentrations of 10^−6, 10^−5, 10^−4, and 10^−3 M (in 10% of DMSO). Subsequently, 50 μL of the final TET assay buffer containing the TET1 protein and 5 μL of chelator’s solution was applied to each sample well. In control wells (TET1 without inhibitors), 5 μL of the final TET assay buffer with 10% DMSO was used instead of chelator’s solution. The final concentrations of chelators in a well plate were 10^−7, 10^−6, 10^−5, 10^−4, and 0 M with less than 1% of final concentration of DMSO. The following steps were performed according to manufacturer’s protocol. The TET1 protein converts methylated substrate to hydroxymethylated products, which could be recognized by a specific antibody. We determined the residual activity of the TET1 protein by measuring a fluorescence intensity on an enzyme-linked immunoabsorbent assay reader (ELISA), Infinite® 200 PRO (Tecan, Switzerland, Switzerland), at an excitation wavelength at 530 nm and an emission wavelength at 590 nm. Each concentration was measured twice within one test, and each test was repeated three times. IC50 values of active inhibitors were determined using GraphPad Prism 8 via nonlinear regression.
# [2] = molecular target: T2, recombinant His-tagged TET1 protein (Homo sapiens, UniProt Q8NFU7); test: Microscale thermophoresis binding to His-tagged TET1; settings: MST, HEPES pH 7.5, 50 nM TET1
# T2 construct: purchased Active Motif, Carlsbad, CA, USA
# Method: We observed a ligand concentration-dependent decrease in labeled protein fluorescence (Figure 5), and fluorescence measurements during serial dilution were performed to discriminate between binding-specific fluorescence quenching (Figure 6) and loss of fluorescence due to protein precipitation.
# For this test, the remainder of tubes 1 to 3 and 14 to 16 prepared in the original binding assay were centrifuged for 10 min at 15,000× g. Thereafter, 10 μL of each sample was removed and mixed with an equal volume of SD-mix (4% SDS and […] (assay buffer)) and heated to 95 °C for 5 min to denature the protein. Subsequently, samples were loaded to standard capillaries, and the fluorescence was detected using a Monolith NT.115. […] The KD value was calculated from ligand concentration-dependent changes in normalized fluorescence (Fnorm) of the TET1 protein after 25 s of thermophoresis, based on the law of mass action using the NT. Affinity Analysis software. […]
# Microscale thermophoresis (MST) is a sensitive method that can be used to assess biomolecular interactions and has been utilized to study interactions between a variety of binding partners of different molecular sizes. […] Signals were recorded using 20% MST power and 40% LED power after 25 s. Measurement was repeated two times, and data were analyzed using the NTAnalysis software. […]
# T1 sequence (Q8NFU7 whole entry): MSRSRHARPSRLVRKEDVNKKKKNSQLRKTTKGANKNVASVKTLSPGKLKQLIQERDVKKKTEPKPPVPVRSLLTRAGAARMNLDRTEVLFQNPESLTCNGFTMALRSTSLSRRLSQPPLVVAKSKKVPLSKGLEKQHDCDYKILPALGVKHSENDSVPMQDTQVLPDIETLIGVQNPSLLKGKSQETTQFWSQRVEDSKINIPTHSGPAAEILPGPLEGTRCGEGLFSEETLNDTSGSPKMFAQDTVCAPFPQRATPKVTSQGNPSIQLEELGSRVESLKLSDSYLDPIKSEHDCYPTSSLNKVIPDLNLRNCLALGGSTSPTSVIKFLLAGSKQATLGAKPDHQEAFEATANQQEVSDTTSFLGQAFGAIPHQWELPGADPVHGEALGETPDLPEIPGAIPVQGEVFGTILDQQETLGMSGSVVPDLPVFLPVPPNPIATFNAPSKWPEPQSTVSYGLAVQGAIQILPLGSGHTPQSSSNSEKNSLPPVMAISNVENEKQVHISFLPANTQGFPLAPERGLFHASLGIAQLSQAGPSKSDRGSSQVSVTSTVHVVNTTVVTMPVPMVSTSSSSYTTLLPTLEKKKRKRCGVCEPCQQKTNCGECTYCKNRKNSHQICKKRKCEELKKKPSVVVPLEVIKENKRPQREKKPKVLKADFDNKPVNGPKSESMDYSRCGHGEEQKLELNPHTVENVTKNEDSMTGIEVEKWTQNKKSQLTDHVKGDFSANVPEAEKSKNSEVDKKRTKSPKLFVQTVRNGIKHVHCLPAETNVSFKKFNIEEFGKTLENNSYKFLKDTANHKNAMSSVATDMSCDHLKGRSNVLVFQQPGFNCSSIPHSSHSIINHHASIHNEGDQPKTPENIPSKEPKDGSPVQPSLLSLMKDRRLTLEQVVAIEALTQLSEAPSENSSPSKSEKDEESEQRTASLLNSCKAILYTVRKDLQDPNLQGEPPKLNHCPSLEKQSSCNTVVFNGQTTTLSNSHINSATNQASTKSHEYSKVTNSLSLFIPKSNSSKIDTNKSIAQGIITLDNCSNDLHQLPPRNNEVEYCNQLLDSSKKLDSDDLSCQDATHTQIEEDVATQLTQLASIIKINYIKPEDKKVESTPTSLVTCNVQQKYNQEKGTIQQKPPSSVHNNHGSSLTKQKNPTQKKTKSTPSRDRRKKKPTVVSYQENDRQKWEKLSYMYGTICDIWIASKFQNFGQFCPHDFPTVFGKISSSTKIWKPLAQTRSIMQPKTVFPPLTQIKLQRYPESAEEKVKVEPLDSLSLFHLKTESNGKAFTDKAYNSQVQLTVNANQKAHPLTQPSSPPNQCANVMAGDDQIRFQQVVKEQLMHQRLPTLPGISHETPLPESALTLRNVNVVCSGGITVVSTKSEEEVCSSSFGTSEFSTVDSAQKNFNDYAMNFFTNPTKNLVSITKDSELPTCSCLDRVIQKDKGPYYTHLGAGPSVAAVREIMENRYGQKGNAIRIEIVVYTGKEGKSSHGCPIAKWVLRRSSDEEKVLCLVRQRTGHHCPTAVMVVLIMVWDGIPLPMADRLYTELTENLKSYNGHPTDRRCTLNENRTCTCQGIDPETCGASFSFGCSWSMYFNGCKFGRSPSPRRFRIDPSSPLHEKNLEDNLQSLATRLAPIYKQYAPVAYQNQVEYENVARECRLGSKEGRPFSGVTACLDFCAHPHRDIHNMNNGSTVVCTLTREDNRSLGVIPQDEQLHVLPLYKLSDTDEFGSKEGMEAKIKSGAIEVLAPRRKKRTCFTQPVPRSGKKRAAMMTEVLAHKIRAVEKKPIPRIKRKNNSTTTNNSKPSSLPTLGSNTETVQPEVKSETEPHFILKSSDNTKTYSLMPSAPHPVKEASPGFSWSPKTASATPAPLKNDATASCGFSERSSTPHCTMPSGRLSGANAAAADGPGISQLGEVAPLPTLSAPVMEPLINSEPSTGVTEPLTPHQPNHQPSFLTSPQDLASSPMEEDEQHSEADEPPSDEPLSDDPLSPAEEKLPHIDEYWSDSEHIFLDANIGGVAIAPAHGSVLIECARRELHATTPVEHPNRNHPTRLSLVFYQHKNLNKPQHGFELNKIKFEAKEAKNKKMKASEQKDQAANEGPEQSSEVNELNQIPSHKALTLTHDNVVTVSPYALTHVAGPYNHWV
# T2 sequence (Q8NFU7 whole entry): as above
average residual TET activity (%) ([1]; Log c 4),average residual TET activity (%) ([1]; Log c 5),average residual TET activity (%) ([1]; Log c 6),average residual TET activity (%) ([1]; Log c 7),Kd [2] [µM],Compound,inhibitory activity towards TET1 [1]
,,,,,CCN(CC)c1ccc(/C=N/NC(=O)c2ccc(-c3cc4c(cc(-c5ccc(C(=O)N/N=C/c6ccc(N(CC)CC)cc6O)cc5)n4-c4ccc(C)cc4)n3-c3ccc(C)cc3)cc2)c(O)c1 [Compound 2],no inhibitory effect; also recorded: no significant inhibition
,,,,,Cc1ccc(-n2c(-c3ccc(C(=O)N/N=C/c4ccc(O)cc4O)cc3)cc3c2cc(-c2ccc(C(=O)N/N=C/c4ccc(O)cc4O)cc2)n3-c2ccc(C)cc2)cc1 [Compound 4],no inhibitory effect; also recorded: no significant inhibition
5.108,19.97,56.08,82.59,27.2 ± 0.9,Cc1ccc(-n2c(-c3ccc(C(=O)NN)cc3)cc3c2cc(-c2ccc(C(=O)NN)cc2)n3-c2ccc(C)cc2)cc1 [Compound 1],
